Common to all, as to test: AK assay 384-well format, Prestwick library screening
One assay deals with E. faecium. Type of assay: cell-based, Enterococcus faecium. The settings on record: for fold induction at 50 µM: Enterococcus faecium, 3 h.
Assay [1] relates to S. aureus strain USA300-0114. Format: cell-based, Staphylococcus aureus. The note with it: for fold induction at 50 µM: Staphylococcus aureus, USA300, 3 h.
For a further assay, the system named is K. pneumoniae. Format: cell-based, Klebsiella pneumoniae. The settings on record: for fold induction at 50 µM: Klebsiella pneumoniae, 3 h.
The subject of assay [2] is A. baumannii strain 98-37-09. Format: cell-based, Acinetobacter baumannii. The note with it: for fold induction at 50 µM: Acinetobacter baumannii, 983709, 3 h.
The next assay relates to P. aeruginosa. Type of assay: cell-based, Pseudomonas aeruginosa. The settings on record: for fold induction at 50 µM: Pseudomonas aeruginosa, 3 h.
A further assay relates to E. cloacae. Format: cell-based, Enterobacter cloacae. The note with it: for fold induction at 50 µM: Enterobacter cloacae, 3 h.
Another assay concerns E. coli. Type of assay: cell-based, Escherichia coli. The note with it: for fold induction at 50 µM: Escherichia coli, 3 h.
The mark [3] stands for this setting: 50 μM final drug concentration, planktonic, cutoff for positive-scoring molecules 3-fold increase, read-out: AK-based Prestwick Library Screening Results, E. faecium (fold increase in extracellular AK activity).
The mark [4] stands for this setting: 50 μM final drug concentration, planktonic, cutoff for positive-scoring molecules 3-fold increase, read-out: AK-based Prestwick Library Screening Results, S. aureus (fold increase in extracellular AK activity).
The mark [5] stands for this setting: 50 μM final drug concentration, planktonic, cutoff for positive-scoring molecules 3-fold increase, read-out: AK-based Prestwick Library Screening Results, K. pneumoniae (fold increase in extracellular AK activity).
Setting [6] is: 50 μM final drug concentration, planktonic, cutoff for positive-scoring molecules 3-fold increase, read-out: AK-based Prestwick Library Screening Results, A. baumannii (fold increase in extracellular AK activity).
Where [7] appears, read: 50 μM final drug concentration, planktonic, cutoff for positive-scoring molecules 3-fold increase, read-out: AK-based Prestwick Library Screening Results, P. aeruginosa (fold increase in extracellular AK activity).
[8] abbreviates: 50 μM final drug concentration, planktonic, cutoff for positive-scoring molecules 3-fold increase, read-out: AK-based Prestwick Library Screening Results, E. cloacae (fold increase in extracellular AK activity).
Setting [9] is: 50 μM final drug concentration, planktonic, cutoff for positive-scoring molecules 3-fold increase, read-out: AK-based Prestwick Library Screening Results, E. coli (fold increase in extracellular AK activity).
The mark [10] stands for this setting: 50 μM final drug concentration, cutoff for positive-scoring molecules 3-fold increase.
Setting [11] is: 50 μM final drug concentration, planktonic, cutoff for positive 3-fold increase.

Counter-ions that a name gives are not always drawn. Like-named read-outs stand apart in the source and are kept apart here.

`CC(C)[N+](C)(CCOC(=O)C1c2ccccc2Oc2ccccc21)C(C)C` [Propantheline bromide]: the fold induction at 50 µM with E. faecium (setting [3]) is 0.8; in assay [1] (setting [4]), 0.8; in the assay on K. pneumoniae (setting [5]), 0.8; in assay [2] (setting [6]), 1; in the assay with P. aeruginosa (setting [7]) it was 0.9; in the assay on E. cloacae (setting [8]) it was 1.3. Besides, the fold induction at 50 µM in the assay with E. coli (setting [9]) was found to be 0.9.
Turning to `COc1cc(N)c(Cl)cc1C(=O)NC1CCN(Cc2ccccc2)CC1` [Clebopride maleate], the fold induction at 50 µM with E. faecium (50 μM final drug concentration, planktonic, cutoff for positive 3-fold increase, read-out: AK-based Prestwick Library Screening Results, E. faecium (fold increase in extracellular AK activity)) came out at 1.1; in assay [1] (50 μM final drug concentration, planktonic, cutoff for positive 3-fold increase, read-out: AK-based Prestwick Library Screening Results, S. aureus (fold increase in extracellular AK activity)) it was 1.2; in the assay with K. pneumoniae (50 μM final drug concentration, planktonic, cutoff for positive 3-fold increase, read-out: AK-based Prestwick Library Screening Results, K. pneumoniae (fold increase in extracellular AK activity)) it was 1; in assay [2] (50 μM final drug concentration, planktonic, cutoff for positive 3-fold increase, read-out: AK-based Prestwick Library Screening Results, A. baumannii (fold increase in extracellular AK activity)) it was 1; in the assay with P. aeruginosa (50 μM final drug concentration, planktonic, cutoff for positive 3-fold increase, read-out: AK-based Prestwick Library Screening Results, P. aeruginosa (fold increase in extracellular AK activity)), 0.9; with E. cloacae (50 μM final drug concentration, planktonic, cutoff for positive 3-fold increase, read-out: AK-based Prestwick Library Screening Results, E. cloacae (fold increase in extracellular AK activity)), 1.6. Besides, the fold induction at 50 µM in the assay with E. coli (50 μM final drug concentration, planktonic, cutoff for positive 3-fold increase, read-out: AK-based Prestwick Library Screening Results, E. coli (fold increase in extracellular AK activity)) turned out to be 1.
As for `COc1cc2c3cc1Oc1cc(ccc1O)C[C@@H]1c4c(cc(OC)c(O)c4Oc4ccc(cc4)C[C@@H]3N(C)CC2)CC[N+]1(C)C.Cl.O.O.O.O.O.[Cl-]` [Tubocurarine chloride pentahydrate (+)], the “AK-based Prestwick Library Screening Results: E. faecium (increase in extracellular AK activity)” value with E. faecium (planktonic E. faecium, 50 μM final drug concentration, 384-well, […]) is recorded as 0.9. Further, the “AK-based Prestwick Library Screening Results: S. aureus (increase in extracellular AK activity)” value in assay [1] (planktonic S. aureus, 50 μM final drug concentration, 384-well, […]) is on record as 0.5. Further, the “AK-based Prestwick Library Screening Results: K. pneumoniae (increase in extracellular AK activity)” value with K. pneumoniae (planktonic K. pneumoniae, 50 μM final drug concentration, 384-well, […]) turned out to be 0.6. Also, in assay [2] (planktonic A. baumannii, 50 μM final drug concentration, 384-well, […]), the “AK-based Prestwick Library Screening Results: A. baumannii (increase in extracellular AK activity)” value was found to be 0.7. For the same compound, the “AK-based Prestwick Library Screening Results: P. aeruginosa (increase in extracellular AK activity)” value in the assay with P. aeruginosa (planktonic P. aeruginosa, 50 μM final drug concentration, 384-well, […]) was determined as 0.6. Further, in the assay with E. cloacae (planktonic E. cloacae, 50 μM final drug concentration, 384-well, […]), the “AK-based Prestwick Library Screening Results: E. cloacae (increase in extracellular AK activity)” value is on record as 0.6. Further, the “AK-based Prestwick Library Screening Results: E. coli (increase in extracellular AK activity)” value in the assay on E. coli (planktonic E. coli, 50 μM final drug concentration, 384-well, […]) was 0.7.
For `O=C(c1ccc(OCCN2CCCCC2)cc1)c1c(-c2ccc(O)cc2)sc2cc(O)ccc12` [Raloxifene hydrochloride], the fold induction at 50 µM in the assay with E. faecium (50 μM final drug concentration, cutoff for positive-scoring molecules 3-fold increase, read-out: AK-based Prestwick Library Screening Results, E. faecium (fold increase in extracellular AK activity)) was 0.9; in assay [1] (50 μM final drug concentration, cutoff for positive-scoring molecules 3-fold increase, read-out: AK-based Prestwick Library Screening Results, S. aureus (fold increase in extracellular AK activity)) it was 1.2; in the assay on K. pneumoniae (50 μM final drug concentration, cutoff for positive-scoring molecules 3-fold increase, read-out: AK-based Prestwick Library Screening Results, K. pneumoniae (fold increase in extracellular AK activity)) it was 1.1; in assay [2] (50 μM final drug concentration, cutoff for positive-scoring molecules 3-fold increase, read-out: AK-based Prestwick Library Screening Results, A. baumannii (fold increase in extracellular AK activity)) it was 1.5; in the assay with P. aeruginosa (50 μM final drug concentration, cutoff for positive-scoring molecules 3-fold increase, read-out: AK-based Prestwick Library Screening Results, P. aeruginosa (fold increase in extracellular AK activity)), 1.2; with E. cloacae (50 μM final drug concentration, cutoff for positive-scoring molecules 3-fold increase, read-out: AK-based Prestwick Library Screening Results, E. cloacae (fold increase in extracellular AK activity)) it was 1.3. Moreover, the fold induction at 50 µM in the assay on E. coli (50 μM final drug concentration, […], read-out: AK-based Prestwick Library Screening Results, E. coli (fold increase in extracellular AK activity)) is 1.5.
`CC(C)(C)NC[C@@H](O)COc1cccc2c1CCCC2=O.Cl` [(+)-Levobunolol hydrochloride]: the “AK-based Prestwick Library Screening Results, E. faecium (fold increase in extracellular AK activity)” value in the assay with E. faecium (setting [10]) is given as 0.9. The “AK-based Prestwick Library Screening Results, S. aureus (fold increase in extracellular AK activity)” value in assay [1] (setting [10]) is recorded as 1.3. For the same compound, the “AK-based Prestwick Library Screening Results, K. pneumoniae (fold increase in extracellular AK activity)” value in the assay with K. pneumoniae (setting [10]) is listed as 0.9. Besides, the “AK-based Prestwick Library Screening Results, A. baumannii (fold increase in extracellular AK activity)” value in assay [2] (setting [10]) turned out to be 0.9. For the same compound, the “AK-based Prestwick Library Screening Results, P. aeruginosa (fold increase in extracellular AK activity)” value in the assay on P. aeruginosa (setting [10]) was 1.2. Further, in the assay on E. cloacae (setting [10]), the “AK-based Prestwick Library Screening Results, E. cloacae (fold increase in extracellular AK activity)” value was 1.5. Besides, the “AK-based Prestwick Library Screening Results, E. coli (fold increase in extracellular AK activity)” value with E. coli (setting [10]) came out at 1.2.
In the case of Eburnamonine (−), the “AK-based Prestwick Library Screening Results, E. faecium (fold increase in extracellular AK activity)” value in the assay with E. faecium (setting [11]) is listed as 1.1. Further, the “AK-based Prestwick Library Screening Results, S. aureus (fold increase in extracellular AK activity)” value in assay [1] (setting [11]) is listed as 1.0. The “AK-based Prestwick Library Screening Results, K. pneumoniae (fold increase in extracellular AK activity)” value in the assay with K. pneumoniae (setting [11]) is on record as 1.0. Besides, in assay [2] (setting [11]), the “AK-based Prestwick Library Screening Results, A. baumannii (fold increase in extracellular AK activity)” value amounted to 1.1. Also, the “AK-based Prestwick Library Screening Results, P. aeruginosa (fold increase in extracellular AK activity)” value in the assay on P. aeruginosa (setting [11]) amounted to 1.3. In addition, in the assay with E. cloacae (setting [11]), the “AK-based Prestwick Library Screening Results, E. cloacae (fold increase in extracellular AK activity)” value is given as 1.4. Also, in the assay on E. coli (setting [11]), the “AK-based Prestwick Library Screening Results, E. coli (fold increase in extracellular AK activity)” value worked out at 1.2.
For `CN(C)CCN(Cc1ccc(Cl)cc1)c1ccccn1` [Chloropyramine hydrochloride], the fold induction at 50 µM turned out to be 0.9 in the assay on E. faecium (setting [3]); 0.5 in assay [1] (setting [4]); 0.6 with K. pneumoniae (setting [5]); 0.6 in assay [2] (setting [6]); 0.5 in the assay with P. aeruginosa (setting [7]); 0.6 in the assay with E. cloacae (setting [8]). Moreover, the fold induction at 50 µM in the assay with E. coli (setting [9]) came to 0.7.
In the case of `C[C@@H]1CN([C@H]2CC[C@](C#N)(c3ccc(F)cc3)CC2)CC[C@]1(C(=O)O)c1ccccc1` [Levocabastine hydrochloride], the fold induction at 50 µM in the assay with E. faecium (planktonic E. faecium, 50 μM final drug concentration, positive cutoff 3-fold increase, read-out: AK-based Prestwick library screening result, E. faecium (fold increase in extracellular AK activity)) came to 1; in assay [1] (planktonic S. aureus, 50 μM final drug concentration, positive cutoff 3-fold increase, read-out: AK-based Prestwick library screening result, S. aureus (fold increase in extracellular AK activity)), 1.1; in the assay with K. pneumoniae (planktonic K. pneumoniae, 50 μM final drug concentration, positive cutoff 3-fold increase, read-out: AK-based Prestwick library screening result, K. pneumoniae (fold increase in extracellular AK activity)), 1.1; in assay [2] (planktonic A. baumannii, 50 μM final drug concentration, positive cutoff 3-fold increase, read-out: AK-based Prestwick library screening result, A. baumannii (fold increase in extracellular AK activity)), 1.2; with P. aeruginosa (planktonic P. aeruginosa, 50 μM final drug concentration, positive cutoff 3-fold increase, read-out: AK-based Prestwick library screening result, P. aeruginosa (fold increase in extracellular AK activity)), 1; with E. cloacae (planktonic E. cloacae, 50 μM final drug concentration, positive cutoff 3-fold increase, read-out: AK-based Prestwick library screening result, E. cloacae (fold increase in extracellular AK activity)), 1.6. In the assay on E. coli (planktonic E. coli, 50 μM final drug concentration, positive cutoff 3-fold increase, read-out: AK-based Prestwick library screening result, E. coli (fold increase in extracellular AK activity)), the fold induction at 50 µM worked out at 1.1.
In the case of `C[C@]12CC[C@H](O)C[C@@H]1CC[C@@H]1[C@@H]2CC[C@]2(C)C(=O)CC[C@@H]12` [Epiandrosterone], the fold induction at 50 µM was determined as 1 in the assay on E. faecium (read-out: AK-based Prestwick Library Screening Results, E. faecium (increase in extracellular AK activity)); 0.6 in assay [1] (read-out: AK-based Prestwick Library Screening Results, S. aureus (increase in extracellular AK activity)); 0.7 with K. pneumoniae (read-out: AK-based Prestwick Library Screening Results, K. pneumoniae (increase in extracellular AK activity)); 0.8 in assay [2] (read-out: AK-based Prestwick Library Screening Results, A. baumannii (increase in extracellular AK activity)); 0.8 in the assay with P. aeruginosa (read-out: AK-based Prestwick Library Screening Results, P. aeruginosa (increase in extracellular AK activity)); 1.1 with E. cloacae (read-out: AK-based Prestwick Library Screening Results, E. cloacae (increase in extracellular AK activity)). Also, in the assay with E. coli (read-out: AK-based Prestwick Library Screening Results, E. coli (increase in extracellular AK activity)), the fold induction at 50 µM worked out at 0.9.

These data come from patent US10004701B2, “Methods and compositions for treating infection” (UNIVERSITY OF ROCHESTER, priority 2012, dated 2018).
